Experimental data reported in US20230087118A1, “IMIDAZO[1,2-a][sequence] DERIVATIVES AND THEIR USE IN THE TREATMENT OF DISEASE” (priority 2019, published 2023).
Structures can show the parent of a compound that is named as a salt. Where two headings read alike, the source gives them in different places.

Biological target: T1, IRAK4 (Homo sapiens, UniProt Q9NWZ3)
T1 sequence (Q9NWZ3 1-460): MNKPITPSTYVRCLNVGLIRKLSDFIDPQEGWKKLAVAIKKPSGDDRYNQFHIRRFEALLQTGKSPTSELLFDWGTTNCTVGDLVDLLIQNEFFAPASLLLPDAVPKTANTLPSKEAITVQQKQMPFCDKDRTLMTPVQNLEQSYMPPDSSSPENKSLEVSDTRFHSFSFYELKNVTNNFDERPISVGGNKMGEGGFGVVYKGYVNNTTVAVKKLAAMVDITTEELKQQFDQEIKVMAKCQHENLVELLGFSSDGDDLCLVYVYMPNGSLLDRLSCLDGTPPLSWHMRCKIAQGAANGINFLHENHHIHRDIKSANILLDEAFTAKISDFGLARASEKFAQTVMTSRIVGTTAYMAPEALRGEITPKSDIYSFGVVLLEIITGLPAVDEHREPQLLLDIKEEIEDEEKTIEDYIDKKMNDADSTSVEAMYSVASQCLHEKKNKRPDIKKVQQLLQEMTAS
Test: biochemical

[1] = IRAK4 Biochemical Assay (1 mM ATP, 2 h) IC50 (μM), 1 mM ATP, 2 h, 100 pM IRAK4

SMILES | IC50 [µM] | IC50 [1] [µM]
COc1ncccc1NC(=O)c1cn2cc(C34COC(C)(C3)C4)nc2c(OC2CCC2)n1 [Example 347, 8-Cyclobutoxy-N-(2-methoxypyridin-3-yl)-2-(1-methyl-2-oxabicyclo[2.1.1]hexan-4-yl)imidazo[1,2-a]pyrazine-6-carboxamide] | 0.0006 | –
CCOc1nc(C(=O)Nc2cc(F)cn(C)c2=O)cn2cc(C3CCCOC3)nc12 (centres unmarked) [Example 272, 8-Ethoxy-N-(5-fluoro-1-methyl-2-oxo-1,2-dihydropyridin-3-yl)-2-(tetrahydro-2H-pyran-3-yl)imidazo[1,2-a]pyrazine-6-carboxamide] | 0.0098 | –
CC(C)Oc1cc2nc(C34COC(C)(C3)C4)c(F)n2cc1C(=O)Nc1cccn(C(F)F)c1=O [Example 326, N-(1-(difluoromethyl)-2-oxo-1,2-dihydropyridin-3-yl)-3-fluoro-7-isopropoxy-2-(1-methyl-2-oxabicyclo[2.1.1]hexan-4-yl)imidazo[1,2-a]pyridine-6-carboxamide] | 0.0019 | –
COc1nc(C(=O)Nc2cccc(C(F)(F)F)n2)cn2cc(C34CCOC(C)(C3)C4)nc12 [Example 238] | 0.0064 | –
COc1cc2nc(C3CCOCC3)cn2cc1C(=O)Nc1cnn(C)c1C [Example 194] | 0.624 | –
COc1cccc(NC(=O)c2cn3cc(C(F)F)nc3cc2OC(C)C)n1 [Example 100] | 0.0178 | –
CC(C)(C)c1cn2cc(C(=O)Nc3cnn4cccnc34)c(OC3CCC3)cc2n1 [Example 266, 2-(tert-Butyl)-7-cyclobutoxy-N-(pyrazolo[1,5-a]pyrimidin-3-yl)imidazo[1,2-a]pyridine-6-carboxamide trifluoroacetate] | – | 0.0013
CCOc1cc2nc(C3CN(CC(F)F)C3)cn2cc1C(=O)Nc1cccc(C(F)F)n1 [Example 90] | – | 0.0015
O=C(Nc1cccc(C(F)F)n1)c1cn2cc(C3CC3)nc2cc1OCC1CC2CCC1O2 (centres unmarked) [Example 470, 7-((7-Oxabicyclo[2.2.1]heptan-2-yl)methoxy)-2-cyclopropyl-N-(6-(difluoromethyl)pyridin-2-yl)imidazo[1,2-a]pyridine-6-carboxamide] | – | 0.0015
COc1cc2nc(C3CCOCC3)cn2cc1C(=O)Nc1ncnc2cccnc12 [Example 204, 7-Methoxy-N-(pyrido[3,2-d]pyrimidin-4-yl)-2-(tetrahydro-2H-pyran-4-yl)imidazo[1,2-a]pyridine-6-carboxamide] | 0.429 | –
Cn1ccc(NC(=O)c2cn3cc(C45CCC(C)(C4)OC5)nc3cc2OC2CC2)n1 (centres unmarked) [Example 552] | 0.0097 | –
COc1cc2nc(C3CCOCC3)cn2cc1C(=O)Nc1ccn(C2CCCC2)n1 [Example 191] | 0.27 | –
CC12CC(c3cn4cc(C(=O)Nc5cccn(C(F)F)c5=O)c(OCC5CC(F)(F)C5)cc4n3)(CO1)C2 [Example 448, 7-((3,3-Difluorocyclobutyl)methoxy)-N-(1-(difluoromethyl)-2-oxo-1,2-dihydropyridin-3-yl)-2-(1-methyl-2-oxabicyclo[2.1.1]hexan-4-yl)imidazo[1,2-a]pyridine-6-carboxamide] | – | 0.0013
COc1ncccc1NC(=O)c1cn2cc(C34COC(C)(C3)C4)nc2c(OC)n1 [Example 232] | 0.0031 | –
CC(Oc1cc2nc(C34COC(C)(C3)C4)cn2cc1C(=O)Nc1cccc(C(F)F)n1)C(F)(F)F (single isomer, unassigned) [Example 619] | 0.0001 | –
CC12CC(c3cn4cc(C(=O)Nc5cccc(C(F)F)n5)ncc4n3)(CO1)C2 [Example 334, N-(6-(Difluoromethyl)pyridin-2-yl)-2-(1-methyl-2-oxabicyclo[2.1.1]hexan-4-yl)imidazo[1,2-a]pyrazine-6-carboxamide] | 0.0599 | –
CCCOc1nc(C(=O)Nc2cccnc2OC)cn2cc(C34COC(C)(C3)C4)nc12 [Example 342, N-(2-methoxypyridin-3-yl)-2-(1-methyl-2-oxabicyclo[2.1.1]hexan-4-yl)-8-propoxyimidazo[1,2-a]pyrazine-6-carboxamide] | 0.001 | –
COc1nc(C(=O)Nc2cccc(C(F)(F)F)n2)cn2cc(C[C@H]3CCOC3)nc12 (single isomer, unassigned) [Example 71] | 0.0311 | –
CCOc1cc2nc(C3CCOCC3)cn2cc1C(=O)Nc1cccc(C2CCOC2)n1 (centres unmarked) [Example 391, 7-Ethoxy-2-(tetrahydro-2H-pyran-4-yl)-N-(6-(tetrahydrofuran-3-yl)pyridin-2-yl)imidazo[1,2-a]pyridine-6-carboxamide hydrochloride] | – | 0.0034
CC12CC(c3cn4cc(C(=O)Nc5cnn6cccnc56)c(OC5CCC5)nc4n3)(CO1)C2 [Example 371, 7-Cyclobutoxy-2-(1-methyl-2-oxabicyclo[2.1.1]hexan-4-yl)-N-(pyrazolo[1,5-a]pyrimidin-3-yl)imidazo[1,2-a]pyrimidine-6-carboxamide] | 0.0003 | –
CC(C)Oc1nc2nc(C34CCC(C)(CC3)OC4)cn2cc1C(=O)Nc1cccc(C(F)F)n1 [Example 383, N-(6-(difluoromethyl)pyridin-2-yl)-7-isopropoxy-2-(1-methyl-2-oxabicyclo[2.2.2]octan-4-yl)imidazo[1,2-a]pyrimidine-6-carboxamide] | – | 0.0001
COCc1cc2nc(C34COC(C)(C3)C4)cn2cc1C(=O)Nc1cccn(C)c1=O [Example 287, 7-(Methoxymethyl)-N-(1-methyl-2-oxo-1,2-dihydropyridin-3-yl)-2-(1-methyl-2-oxabicyclo[2.1.1]hexan-4-yl)imidazo[1,2-a]pyridine-6-carboxamide] | 7.14 | –
COc1cc2nc(C3CCOCC3)cn2cc1C(=O)Nc1cccn(CC(F)(F)F)c1=O [Example 198] | 0.0759 | –
CC(C)Oc1cc2nc(C34COC(C)(C3)C4)cn2cc1C(=O)Nc1ccn(C)n1 [Example 297, 7-Isopropoxy-N-(1-methyl-1H-pyrazol-3-yl)-2-(1-methyl-2-oxabicyclo[2.1.1]hexan-4-yl)imidazo[1,2-a]pyridine-6-carboxamide trifluoroacetate] | – | 0.0048
CC(C)Oc1c(C(=O)Nc2cccc(C(F)F)n2)cn2cc(C3CCOCC3)nc2c1F [Example 303, N-(6-(difluoromethyl)pyridin-2-yl)-8-fluoro-7-isopropoxy-2-(tetrahydro-2H-pyran-4-yl)imidazo[1,2-a]pyridine-6-carboxamide] | 0.0014 | –
CC(C)Oc1nc2nc(C34COC(C)(C3)C4)cn2cc1C(=O)Nc1cccc(C(F)F)n1 [Example 218] | – | 0.0002
CC12CC(c3cn4cc(C(=O)Nc5cccc6ccnn56)nc(OC5CCC5)c4n3)(CO1)C2 [Example 348, 8-Cyclobutoxy-2-(1-methyl-2-oxabicyclo[2.1.1]hexan-4-yl)-N-(pyrazolo[1,5-a]pyridin-7-yl)imidazo[1,2-a]pyrazine-6-carboxamide] | 0.0082 | –

Continued, in another order:

IC50 [µM] | SMILES | IC50 [1] [µM]
0.0035 | COc1ncccc1NC(=O)c1cn2cc(C34CCOC(C)(C3)C4)nc2c(OC)n1 [Example 235] | –
0.0006 | Cc1cnc2c(NC(=O)c3cn4cc(C56CCC(C5)OC6)nc4nc3OC(C)C)cnn2c1 (centres unmarked) [Example 433] | –
0.0031 | CC(C)Oc1cc2nc([C@]34CC[C@](C)(C3)OC4)cn2cc1C(=O)Nc1ccn(C)n1 (single isomer, unassigned) [Example 607] | –
0.002 | COc1ncccc1NC(=O)c1cn2cc([C@]34CC[C@](C)(C3)OC4)nc2c(OC)n1 (single isomer, unassigned) [Example 586] | –
0.0005 | CC(C)Oc1nc2nc(C34CCC(C3)OC4)cn2cc1C(=O)Nc1cnn2cccnc12 (centres unmarked) [Example 565, 2-(2-Oxabicyclo[2.2.1]heptan-4-yl)-7-isopropoxy-N-(pyrazolo[1,5-a]pyrimidin-3-yl)imidazo[1,2-a]pyrimidine-6-carboxamide] | –
0.0082 | CC(C)Oc1nc2nc(C34COC(C)(C3)C4)cn2cc1C(=O)Nc1ccn(C(F)(F)F)n1 [Example 362, 7-Isopropoxy-2-(1-methyl-2-oxabicyclo[2.1.1]hexan-4-yl)-N-(1-(trifluoromethyl)-1H-pyrazol-3-yl)imidazo[1,2-a]pyrimidine-6-carboxamide] | –
0.0067 | CC(C)Oc1nc(C(=O)Nc2cnn3cccnc23)cn2cc(C34COC(CF)(C3)C4)nc12 [Example 340, 2-(1-(Fluoromethyl)-2-oxabicyclo[2.1.1]hexan-4-yl)-8-isopropoxy-N-(pyrazolo[1,5-a]pyrimidin-3-yl)imidazo[1,2-a]pyrazine-6-carboxamide] | –
0.0004 | CCOc1nc(C(=O)Nc2cccnc2OC)cn2cc([C@@]34CC[C@@](C)(C3)OC4)nc12 (single isomer, unassigned) [Example 605] | –
0.0012 | CC(C)Oc1c(C(=O)Nc2cccc(C(F)F)n2)cn2cc(C34COC(CF)(C3)C4)nc2c1F [Example 269, N-(6-(Difluoromethyl)pyridin-2-yl)-8-fluoro-2-(1-(fluoromethyl)-2-oxabicyclo[2.1.1]hexan-4-yl)-7-isopropoxyimidazo[1,2-a]pyridine-6-carboxamide] | –
0.0007 | CC(C)Oc1nc(C(=O)Nc2cccn(C)c2=O)cn2cc(C34CCC(C)(CC3)OC4)nc12 [Example 427, 8-Isopropoxy-N-(1-methyl-2-oxo-1,2-dihydropyridin-3-yl)-2-(1-methyl-2-oxabicyclo[2.2.2]octan-4-yl)imidazo[1,2-a]pyrazine-6-carboxamide] | –
1.23 | COCc1cc2nc(C34COC(C)(C3)C4)cn2cc1C(=O)Nc1cnn2cc(C)cnc12 [Example 288, 7-(Methoxymethyl)-2-(1-methyl-2-oxabicyclo[2.1.1]hexan-4-yl)-N-(6-methylpyrazolo[1,5-a]pyrimidin-3-yl)imidazo[1,2-a]pyridine-6-carboxamide] | –
